Source: patent US7345049B2, “Phenylalanine derivatives” (Ajinomoto Co., Inc., priority 2003, dated 2008)
Counter-ions that a name gives are not always drawn.

Molecular target: T1, VCAM-1/α4β1 integrin binding (Homo sapiens, UniProt P05556+P13612)
T1 construct: Jurkat (ATCC TIB-152), known to express integrin α4β1; endogenous in cells; host or cells: Jurkat (ATCC TIB-152)
Test: Assay of antagonistic activity to VCAM-1/α4β1 integrin binding under the existence of blood serum (Jurkat cell adhesion to VCAM-1/Fc)
Format: cell-based
Conditions: Jurkat cells, recombinant human VCAM-1/Fc, 50% human blood serum
Protocol: Assay of Antagonistic Activity to VCAM-1/α4β1 Integrin Binding Under the Existence of Blood Serum
The capacity of a test substance antagonistic to the binding of cell strain of human T cells, Jurkat (ATCC TIB-152), known to express integrin α4β1, to VCAM-1 was determined.
Fifty μl/well of a solution (500 ng/ml) of recombinant human VCAM-1/Fc (R & D systems) diluted with buffer A (0.1 M NaHCO3, pH 9.6) was added to a 96-well microtiter plate (Nunc Maxisorp). After the incubation at 4° C. overnight and washing once with PBS, a buffer (buffer B) obtained by diluting Block Ace (Snow Brand Milk Products Co., Ltd.) with PBS to ½ concentration was added in an amount of 150 μl/well. After the incubation at room temperature for 2 hours, buffer B was removed and the plate was washed with PBS once.
Jurkat cells were washed with Dulbecco modified Eagle medium (SIGMA, hereinafter referred to as “DMEM”) once. Then, the cells were again suspended in a binding buffer (DMEM containing 20 mM HEPES, 0.1% BSA, 2 mM MnCl2 and 50% human blood serum (Sigma)) to become 1×10^6 cells/mL.
Sixty μl of a test substance of various concentrations obtained by the dilution with the binding buffer was added to a round-bottom, 96-well plate (IWAKI). Immediately thereafter, 60 μl of the Jurkat cells (1×10^6 cells/ml) were added thereto and shaken on a plate shaker (IKA-Labortechnik, IKA-SCHUTTLER MTS-4) at 1000 rpm for 10 seconds. In 120 μL of the cell suspension to which the test substance was added, each 100 μL thereof was transferred on the VCAM-1/Fc-coated plate and incubated in dark place at room temperature for 60 minutes. After the shaking on the plate shaker at 1000 rpm for 30 seconds, the solution was immediately removed. Then, the unbound cells were removed by washing them with PBS once. A buffer C (PBS containing 0.82% Triton X-100) was added to the plate in an amount of 70 μL/well. After the shaking on the plate shaker at 1000 rpm for 5 minutes, the bound Jurkat cells were lysed. After centrifuging the cells on a plate centrifuge (SIGMA 4-15C) at room temperature at 2500 rpm for 5 minutes, 50 μL of supernatant thereof was transferred to a 96-well microtiter plate (Nunc Maxisorp). Each 50 μL of Substrate Buffer (Promega, CytoTox 96 Non-Radioactive Cytotoxicity Assay) was added thereto, shaken on a plate shaker at 1000 rpm for 10 seconds and reacted in dark place at room temperature for 30 minutes. Then, each 50 μL of Stop Solution (Promega, CytoTox 96 Non-Radioactive Cytotoxicity Assay) was added thereto and shaken on a plate shaker at 1000 rpm for 10 seconds. […] The absorbance thus obtained detects an activity of lactate dehydrogenase (LDH) dissolved in the supernatant of each well. Namely, the absorbance is proportional to the number of remaining Jurkat cells on the plate via the binding to VCAM-1. The test was conducted in duplicate and the binding rate of each test substance in various concentrations was determined while the absorbance of the test substance-free well was determined to be 100% and the absorbance of the Jurkat-cell-free well was determined to be 0%. The concentration for the 50% inhibition of binding, IC50, was calculated.

T1 sequence (P13612 34-1032): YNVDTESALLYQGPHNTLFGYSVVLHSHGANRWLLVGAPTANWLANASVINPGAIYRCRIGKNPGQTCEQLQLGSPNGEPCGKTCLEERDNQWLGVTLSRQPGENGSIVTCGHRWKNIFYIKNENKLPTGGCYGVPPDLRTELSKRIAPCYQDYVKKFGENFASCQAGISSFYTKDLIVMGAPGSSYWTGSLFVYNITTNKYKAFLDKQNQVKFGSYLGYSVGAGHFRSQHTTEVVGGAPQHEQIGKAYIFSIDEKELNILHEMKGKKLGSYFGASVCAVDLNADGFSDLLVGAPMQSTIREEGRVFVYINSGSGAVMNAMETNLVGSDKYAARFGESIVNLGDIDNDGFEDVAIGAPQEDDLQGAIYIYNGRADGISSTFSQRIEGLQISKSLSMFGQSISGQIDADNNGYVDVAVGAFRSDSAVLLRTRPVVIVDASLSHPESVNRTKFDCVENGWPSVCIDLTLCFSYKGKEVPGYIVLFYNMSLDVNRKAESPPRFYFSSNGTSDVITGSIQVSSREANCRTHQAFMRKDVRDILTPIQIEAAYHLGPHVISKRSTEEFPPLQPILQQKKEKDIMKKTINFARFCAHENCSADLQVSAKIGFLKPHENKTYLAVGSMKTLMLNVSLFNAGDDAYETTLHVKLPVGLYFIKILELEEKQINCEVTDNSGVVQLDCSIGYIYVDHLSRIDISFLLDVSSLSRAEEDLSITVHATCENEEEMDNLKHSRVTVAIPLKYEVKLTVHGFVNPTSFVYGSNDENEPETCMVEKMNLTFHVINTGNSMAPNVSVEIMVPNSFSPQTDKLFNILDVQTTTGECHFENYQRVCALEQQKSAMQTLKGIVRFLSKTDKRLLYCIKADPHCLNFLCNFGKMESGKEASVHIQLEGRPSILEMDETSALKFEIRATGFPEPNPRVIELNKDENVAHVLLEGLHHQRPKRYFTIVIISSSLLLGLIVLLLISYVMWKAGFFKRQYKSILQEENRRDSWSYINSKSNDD
T1 sequence (P05556 21-798): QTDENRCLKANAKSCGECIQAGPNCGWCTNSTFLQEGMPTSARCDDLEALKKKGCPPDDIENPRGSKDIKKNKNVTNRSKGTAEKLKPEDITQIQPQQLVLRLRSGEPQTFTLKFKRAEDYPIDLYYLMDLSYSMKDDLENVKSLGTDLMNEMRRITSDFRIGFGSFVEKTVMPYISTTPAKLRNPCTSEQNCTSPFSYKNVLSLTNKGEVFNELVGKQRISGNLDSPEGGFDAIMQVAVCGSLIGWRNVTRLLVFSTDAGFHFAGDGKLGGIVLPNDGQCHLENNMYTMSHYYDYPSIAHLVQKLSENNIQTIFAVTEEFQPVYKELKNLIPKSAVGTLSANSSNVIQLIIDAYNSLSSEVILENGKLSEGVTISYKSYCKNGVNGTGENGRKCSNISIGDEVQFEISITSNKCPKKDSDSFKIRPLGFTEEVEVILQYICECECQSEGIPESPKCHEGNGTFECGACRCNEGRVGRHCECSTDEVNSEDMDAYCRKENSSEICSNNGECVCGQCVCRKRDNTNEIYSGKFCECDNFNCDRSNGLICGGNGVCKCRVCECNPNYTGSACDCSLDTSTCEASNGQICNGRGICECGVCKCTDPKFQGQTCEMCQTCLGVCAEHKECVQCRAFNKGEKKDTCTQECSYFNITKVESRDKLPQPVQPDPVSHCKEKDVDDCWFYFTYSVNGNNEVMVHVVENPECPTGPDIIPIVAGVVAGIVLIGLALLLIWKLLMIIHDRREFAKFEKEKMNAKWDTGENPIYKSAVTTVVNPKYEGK

IC50 [nM]	Molecule
12.2	N-(2,6-dichlorobenzoyl)-4-[6-((2S)-2-aminopropoxy)-1-methyl-2,4-quinazoline-dione-3-yl]-L-phenylalanine isopropylester [Example 141]
9.2	CNCCCOc1ccc2c(c1)c(=O)n(-c1ccc(C[C@H](NC(=O)c3c(Cl)cccc3Cl)C(=O)O)cc1)c(=O)n2C [Example 226]
6.9	CC(C)NCc1ccc2c(c1)c(=O)n(-c1ccc(C[C@H](NC(=O)c3c(Cl)cccc3Cl)C(=O)O)cc1)c(=O)n2C [Example 194]
14.7	CN(C)CCOc1ccc2c(c1)c(=O)n(-c1ccc(C[C@H](NC(=O)c3c(Cl)cccc3Cl)C(=O)O)cc1)c(=O)n2C [Example 142, N-(2,6-dichlorobenzoyl)-4-[6-(2-dimethylaminoethoxy)-1-methyl-2,4-quinazoline-dione-3-yl]-L-phenylalanine]
13.4	CCNCCCc1ccc2c(c1)c(=O)n(-c1ccc(C[C@H](NC(=O)c3c(Cl)cccc3Cl)C(=O)O)cc1)c(=O)n2C [Example 208]
15.2	CCCNCCCc1ccc2c(c1)c(=O)n(-c1ccc(C[C@H](NC(=O)c3c(Cl)cccc3Cl)C(=O)O)cc1)c(=O)n2C [Example 209]
12.9	Cn1c(=O)n(-c2ccc(C[C@H](NC(=O)c3c(Cl)cccc3Cl)C(=O)O)cc2)c(=O)c2cc(CN)ccc21 [Example 191]
16.6	Cn1c(=O)n(-c2ccc(C[C@H](NC(=O)c3c(Cl)cccc3Cl)C(=O)O)cc2)c(=O)c2cc(CN3CCCCC3)ccc21 [Example 57]
17.9	Cn1c(=O)n(-c2ccc(C[C@H](NC(=O)c3c(Cl)cccc3Cl)C(=O)O)cc2)c(=O)c2cc(CNC3CC3)ccc21 [Example 192]
12.3	Cn1c(=O)n(-c2ccc(C[C@H](NC(=O)c3c(Cl)cccc3Cl)C(=O)O)cc2)c(=O)c2cnccc21 [Example 64]
9.4	Cc1nccn1-c1cc2c(cc1F)c(=O)n(-c1ccc(C[C@H](NC(=O)c3c(Cl)cccc3Cl)C(=O)O)cc1)c(=O)n2C [Example 160]
15.5	COCCNc1ccc2c(c1)c(=O)n(-c1ccc(C[C@H](NC(=O)c3c(Cl)cccc3Cl)C(=O)O)cc1)c(=O)n2C [Example 10]
10.8	COCc1ccc2c(=O)n(-c3ccc(C[C@H](NC(=O)c4c(Cl)cccc4Cl)C(=O)O)cc3)c(=O)n(C)c2c1 [Example 63]
16.5	CCc1nccn1-c1cc2c(cc1F)c(=O)n(-c1ccc(C[C@H](NC(=O)c3c(Cl)cccc3Cl)C(=O)O)cc1)c(=O)n2C [Example 161]
5.3	CC(C)CCNCc1ccc2c(c1)c(=O)n(-c1ccc(C[C@H](NC(=O)c3c(Cl)cccc3Cl)C(=O)O)cc1)c(=O)n2C [Example 196]
15.4	Cn1c(=O)n(-c2ccc(C[C@H](NC(=O)c3c(Cl)cccc3Cl)C(=O)O)cc2)c(=O)c2cc(C(N)=O)ccc21 [Example 50]
22.9	CN1CCN(c2ccc3c(c2)c(=O)n(-c2ccc(C[C@H](NC(=O)c4c(Cl)cccc4Cl)C(=O)O)cc2)c(=O)n3C)CC1 [Example 2]
12.4	Cn1c(=O)n(-c2ccc(C[C@H](NC(=O)c3c(Cl)cccc3Cl)C(=O)O)cc2)c(=O)c2cc(S(C)(=O)=O)ccc21 [Example 38, N-(2,6-dichlorobenzoyl)-4-[1-methyl-6-(methylsulfonyl)-2,4-quinazoline-dione-3-yl]-L-phenylalanine]
4.9	CNCc1ccc2c(=O)n(-c3ccc(C[C@H](NC(=O)c4c(Cl)cccc4Cl)C(=O)O)cc3)c(=O)n(C)c2c1 [Example 144, N-(2,6-dichlorobenzoyl)-4-[7-methylaminomethyl-1-methyl-2,4-quinazoline-dione-3-yl]-L-phenylalanine]

IC50 [nM]	Molecule
6.5	Cn1c(=O)n(-c2ccc(C[C@H](NC(=O)c3c(Cl)cccc3Cl)C(=O)O)cc2)c(=O)c2ccc(N3CCOCC3)cc21 [Example 39, N-(2,6-dichlorobenzoyl)-4-[1-methyl-7-(morpholine-4-yl)-2,4-quinazoline-dione-3-yl]-L-phenylalanine trifluoroacetate]
8.9	CN(C)C1CCN(c2ccc3c(c2)c(=O)n(-c2ccc(C[C@H](NC(=O)c4c(Cl)cccc4Cl)C(=O)O)cc2)c(=O)n3C)C1 (some centres unmarked) [Example 6]
10.8	CCN(CC)CCN(C)c1ccc2c(c1)c(=O)n(-c1ccc(C[C@H](NC(=O)c3c(Cl)cccc3Cl)C(=O)O)cc1)c(=O)n2C [Example 5]
14.7	CNCCc1cc2c(=O)n(-c3ccc(C[C@H](NC(=O)c4c(Cl)cccc4Cl)C(=O)O)cc3)c(=O)n(C)c2cc1F [Example 229, N-(2,6-dichlorobenzoyl)-4-{7-fluoro-1-methyl-6-[2-(methylamino)ethyl]-2,4-dioxo-1,2,3,4-tetrahydroquinazoline-3(2H)-yl}-L-phenylalanine]
6.3	Cn1c(=O)n(-c2ccc(C[C@H](NC(=O)c3c(Cl)cccc3Cl)C(=O)O)cc2)c(=O)c2cc(CNCC3CC3)ccc21 [Example 197]
15.7	Cn1c(=O)n(-c2ccc(C[C@H](NC(=O)c3c(Cl)cccc3Cl)C(=O)O)cc2)c(=O)c2ncccc21 [Example 47, N-(2,6-dichlorobenzoyl)-4-[1-methyl-2,4-dioxo-1,2,3,4-tetrahydro-3-(2H)pyrido[3,2-d]pyrimidinyl]-L-phenylalanine]
18.1	CCCNCc1ccc2c(c1)c(=O)n(-c1ccc(C[C@H](NC(=O)c3c(Cl)cccc3Cl)C(=O)O)cc1)c(=O)n2C [Example 98]
22.9	CN1CCN(C)c2cc3c(cc21)c(=O)n(-c1ccc(C[C@H](NC(=O)c2c(Cl)cccc2Cl)C(=O)O)cc1)c(=O)n3C [Example 17]
7.9	CCN(CC)Cc1ccc2c(=O)n(-c3ccc(C[C@H](NC(=O)c4c(Cl)cccc4Cl)C(=O)O)cc3)c(=O)n(C)c2c1 [Example 146, N-(2,6-dichlorobenzoyl)-4-[1-methyl-7-diethylaminomethyl-2,4-quinazoline-dione-3-yl]-L-phenylalanine]
23.3	Cn1c(=O)n(-c2ccc(C[C@H](NC(=O)c3c(Cl)cccc3Cl)C(=O)O)cc2)c(=O)c2cc(CN3CCOCC3)ccc21 [Example 53]
1.7	Cn1c(=O)n(-c2ccc(CC(NC(=O)c3c(Cl)cccc3Cl)C(=O)O)cc2)c(=O)c2cc(N3CCOCC3)ccc21 (centres unmarked) [Example 1]
7	CCNCc1ccc2c(=O)n(-c3ccc(C[C@H](NC(=O)c4c(Cl)cccc4Cl)C(=O)O)cc3)c(=O)n(C)c2c1 [Example 143, N-(2,6-dichlorobenzoyl)-4-[7-ethylaminomethyl-1-methyl-2,4-quinazoline-dione-3-yl]-L-phenylalanine]
25.5	Cn1c(=O)n(-c2ccc(C[C@H](NC(=O)c3c(Cl)cccc3Cl)C(=O)O)cc2)c(=O)c2cc(CO)ccc21 [Example 60]
11.7	Cn1ncc2c(=O)n(-c3ccc(C[C@H](NC(=O)c4c(Cl)cccc4Cl)C(=O)O)cc3)c(=O)n(C)c21 [Example 18]
5.8	CCN(CC)CCN(C)c1cc2c(cc1F)c(=O)n(-c1ccc(C[C@H](NC(=O)c3c(Cl)cccc3Cl)C(=O)O)cc1)c(=O)n2C [Example 14]
13.1	Cn1c(=O)n(-c2ccc(C[C@H](NC(=O)c3c(Cl)cccc3Cl)C(=O)O)cc2)c(=O)c2cc(CN3CCCC3)ccc21 [Example 56]
5.5	CN(C)CCN(C)c1cc2c(cc1F)c(=O)n(-c1ccc(C[C@H](NC(=O)c3c(Cl)cccc3Cl)C(=O)O)cc1)c(=O)n2C [Example 13]
23.5	CCNc1ccc2c(=O)n(-c3ccc(C[C@H](NC(=O)c4c(Cl)cccc4Cl)C(=O)O)cc3)c(=O)n(C)c2c1 [Example 19]
11.7	CNCCc1ccc2c(c1)c(=O)n(-c1ccc(C[C@H](NC(=O)c3c(Cl)cccc3Cl)C(=O)O)cc1)c(=O)n2C [Example 230, N-(2,6-dichlorobenzoyl)-4-{1-methyl-6-[2-(methylamino)ethyl]-2,4-dioxo-1,2,3,4-tetrahydroquinazoline-3(2H)-yl}-L-phenylalanine]
